This data set can be described thus: solvent given as SMILES.

Molecules are shown by their SMILES.

`CCN(CC)c1ccc2c(-c3ccccc3C(=O)O)c3c([o+]c2c1)/C(=C/c1nc(C)n2ccccc12)CCC3` returned an absorption maximum (in ClCCl) of 701 nm.
The compound `N#Cc1cc(C#N)c(-c2ccc(N(c3ccccc3)c3ccccc3)cc2)cc1-c1ccc(N(c2ccccc2)c2ccccc2)cc1` displayed an absorption maximum (in Cc1ccccc1) of 394 nm.
`C(=C\c1cc(/C=C/c2ccccc2)cc(/C=C/c2ccccc2)c1)/c1ccccc1` had an absorption maximum (in ClCCl) of 317 nm.
On the same count and under the same terms, as for `CCN(CC)c1c2ccc(=[N+]3CCCCC3)cc-2oc2cc(N3CCCCC3)ccc12`, the figure is 499 nm; as for `CCCCCCCCCn1c(-c2cc(-c3nc4ccccc4n3CCCCCCCCC)cc(-c3nc4ccccc4n3CCCCCCCCC)c2)nc2ccccc21`, 300 nm.
For `COc1ccc(C2=[O+][B-](F)(F)OC(c3ccc4c(c3)Cc3ccccc3-4)=C2)cc1`, where the note is “in CC#N”, the absorption maximum is on record as 424 nm.
Consider `CN(C)c1ccc(/C=C/c2ncccn2)cc1`, for which the absorption maximum (in ClCCl) came to 379 nm.
Take `Oc1ccccc1/N=C/c1ccccc1Oc1ccccc1`: the absorption maximum (in C1CCCCC1) is given as 353 nm; the absorption maximum (in C1CCOC1) is 355 nm; the absorption maximum (in C1COCCO1) came out at 367 nm; the absorption maximum (in CC#N) was found to be 349 nm; the absorption maximum (in CC(C)=O) was determined as 366 nm; the absorption maximum (in CC(C)CO) is listed as 352 nm. In addition, the absorption maximum worked out at 352 nm (in CC(C)O); 355 nm (in CCCCC); 367 nm (in CCCCCC); 355 nm (in CCCCCCCCO); 354 nm (in CCCCCCCO); 355 nm (in CCCCCCO). Besides, the absorption maximum worked out at 353 nm (in CCCCO); 367 nm (in CCCCOC(C)=O); 351 nm (in CCCO); 350 nm (in CCO); 363 nm (in CCOCC); 349 nm (in CN(C)C=O). Also, the absorption maximum by setting is: (in CO) 348 nm; (in CS(C)=O) 373 nm; (in Cc1ccccc1) 381 nm; (in Cc1ccccc1C) 359 nm; (in ClC(Cl)Cl) 356 nm; (in ClCCl) 356 nm. For the same compound, the absorption maximum runs as follows: (in N#Cc1ccccc1) 357 nm; (in OCCO) 349 nm; (in c1ccccc1) 366 nm.
Consider `CC1=NN(c2ccccc2)C(=O)/C1=C/c1cn(-c2ccccc2)nc1-c1ccccc1`, for which the absorption maximum reads like this: (in C1CCOC1) 365 nm; (in C1COCCO1) 366 nm; (in CCO) 367 nm; (in CCOC(C)=O) 364 nm; (in CN(C)C=O) 367 nm; (in CO) 364 nm. In addition, the absorption maximum runs as follows: (in CS(C)=O) 370 nm; (in Cc1ccccc1) 369 nm; (in ClC(Cl)Cl) 368 nm; (in ClCCl) 368 nm.
`F[B-]1(F)n2c(/C=C/c3ccc(C(=C(c4ccccc4)c4ccccc4)c4ccccc4)cc3)ccc2C(c2ccccc2)=C2C=CC(/C=C/c3ccc(C(=C(c4ccccc4)c4ccccc4)c4ccccc4)cc3)=[N+]21` yielded an absorption maximum (in C1CCOC1) of 665 nm.
In the case of `CCCCc1ccc2ccc3c(CCCC)cc(CCCC)c4ccc1c2c34`, the absorption maximum is reported as 352 nm (in CCCCCC), 351 nm (in CO) and 354 nm (in ClCCl).
In turn, `CCc1nc2c(nc1CC)C(c1ccccc1)=[N+]1C2=Nc2c3nc(CC)c(CC)nc3c(-c3ccccc3)n2[B-]1(F)F` displayed an absorption maximum (in C1CCOC1) of 685 nm.
Turning to `C[Si]1(C)C2=C(c3ccc(N(c4ccccc4)c4ccccc4)cc31)P(=O)(c1ccccc1)c1ccccc12` (centres undefined), the absorption maximum is, setting by setting: (in CC#N) 440 nm; (in CO) 452 nm; (in Cc1ccccc1) 446 nm.
`CN(C)c1ccc(C#Cc2ccc(-c3nc(C#N)c(C#N)n3C)cc2)cc1`: the absorption maximum was 372 nm (in C1CCCCC1), 357 nm (in CC#N), 356 nm (in CO) and 369 nm (in ClC(Cl)Cl).
Regarding `CC(C)[Si](C#Cc1ccc(C#C[Si](C(C)C)(C(C)C)C(C)C)c2nc3c(nc12)Cc1ccccc1-3)(C(C)C)C(C)C`, the absorption maximum (in CCCCCC) was found to be 369 nm.
Consider `F[B-]1(F)OC(c2ccccc2)=Cc2c3ccccc3c3ccccc3[n+]21`, for which, where the note is “in ClC(Cl)Cl”, the absorption maximum came out at 432 nm.
For `CCCCCCc1ccc2c(/C=N/c3cc(/N=C/c4c(O)ccc5cc(CCCCCC)ccc45)cc(/N=C/c4c(O)ccc5cc(CCCCCC)ccc45)c3)c(O)ccc2c1`, the absorption maximum runs as follows: (in C1CCOC1) 477 nm; (in CC#N) 474 nm; (in Cc1ccccc1) 480 nm; (in ClCCl) 479 nm.
On to `COc1ccc2ccc3oc(=O)c(-c4ccccc4)nc3c2c1`, for which, for the setting “in c1ccccc1”, the absorption maximum is 404 nm.
Consider `COc1ccc(C2=[N+]3C(=Nc4c(-c5ccccc5)c(Br)c(-c5ccc(OC)cc5)n4[B-]3(F)F)C(c3ccccc3)=C2Br)cc1`, for which the absorption maximum is, setting by setting: (in ClC(Cl)Cl) 679 nm; (in ClCCl) 679 nm.
`CCC1=C(C)C2=Cc3c(I)c(I)cn3[B-](F)(F)[N+]2=C1C`: the absorption maximum by setting is: (in C1CCCCC1) 527.5 nm; (in CC(C)=O) 509 nm; (in CCO) 517.5 nm; (in CCOC(C)=O) 515 nm; (in CO) 513 nm; (in OCC(F)(F)F) 501 nm.
Consider `Nc1cc(F)c(C(=O)c2cc(F)c(F)cc2F)cc1F`, for which the absorption maximum (in CCO) was 335 nm.
`N#Cc1ccc2c(c1)C1(c3cc(C#N)ccc3-2)c2ccccc2N(c2ccccc2)c2ccccc21` displayed an absorption maximum (in Cc1ccccc1) of 330.33 nm.
In the case of `c1ccc2c(c1)c1ccccc1n2-c1ccc(-c2ccn3nc(-c4ccc(-n5c6ccccc6c6ccccc65)cc4)nc3c2)cc1`, the absorption maximum (in C1CCOC1) amounted to 342 nm.
The same measure, in the same setting: the result for `CCOC(=O)c1ccc(C2=C(c3ccccc3)c3oc4ccccc4[n+]3[B-](F)(F)O2)cc1` reads 350 nm.
Consider `O=C1c2ccccc2-c2ccccc21`, for which the absorption maximum reads like this: (in C1CCCCC1) 382 nm; (in CC#N) 377 nm; (in CCO) 379 nm; (in c1ccccc1) 380 nm.
As to `CCCCN1C(=S)c2cccc3c(OC)ccc(c23)C1=S`, the absorption maximum stood at 476 nm (in CC#N), 483 nm (in CS(C)=O) and 468 nm (in Cc1ccccc1).
The compound `N#CC(C#N)=Cc1ccc(-c2ccc(N(c3ccccc3)c3ccccc3)cc2)s1` registered an absorption maximum (in ClC(Cl)Cl) of 506 nm.
`CC1(C)c2ccccc2N(c2ccc(C(=O)/C=C(\O)c3ccc(N4c5ccccc5C(C)(C)c5ccccc54)cc3)cc2)c2ccccc21` returned an absorption maximum (in Cc1ccccc1) of 406 nm.
For the setting “in ClC(Cl)Cl”, `CN1C(=CC2=C([O-])C(=CC3=[N+](C)c4ccccc4C3(C)C)C2=C2C(=O)NC(=O)NC2=O)C(C)(C)c2ccccc21` had an absorption maximum of 644 nm.
As to `CCCCC1=Cc2c3ccc4cccc5ccc(c6cc(-c7ccccc7)n(c26)P1(=O)c1ccccc1)c3c45` (centres undefined), the absorption maximum is, setting by setting: (in C1CCCCC1) 430 nm; (in C1CCOC1) 430 nm; (in C1COCCO1) 430 nm; (in CC#N) 426 nm; (in CC(C)=O) 427 nm; (in CO) 426 nm. Moreover, the absorption maximum is, setting by setting: (in Cc1ccccc1) 433 nm; (in ClC(Cl)Cl) 431 nm; (in ClCCl) 430 nm.
`COc1c2ccccc2c(OC)c2c1c1cc(F)ccc1n2C`: the absorption maximum by setting is: (in C1CCCCC1) 415 nm; (in CC#N) 417 nm; (in CO) 416 nm; (in ClCCl) 419 nm.
With `CC(=O)c1c2c(cc3ccc(N(C)C)cc13)CCC2`, the absorption maximum amounted to 373 nm (in C1CCCCC1); 377 nm (in C1CCOC1); 376 nm (in C1COCCO1); 375 nm (in CC#N); 377 nm (in CCO); 377 nm (in CS(C)=O). The absorption maximum runs as follows: (in Cc1ccccc1) 376 nm; (in ClC(Cl)Cl) 377 nm; (in ClCCl) 377 nm.
For the setting “in CS(C)=O”, `Clc1cccc(-c2nc3sc4ccccc4c3s2)c1` had an absorption maximum of 351 nm.
Take `CN(C)c1ccc(C(=O)Nc2ccc(F)cc2)cc1`: the absorption maximum (in C1CCCCC1) amounted to 307 nm, the absorption maximum (in C1CCOC1) is 311 nm, the absorption maximum (in CC#N) was determined as 314 nm and the absorption maximum (in CCOCC) is on record as 307 nm.
`Fc1ccc2sc3nc(-c4ccccc4)sc3c2c1` yielded an absorption maximum (in CS(C)=O) of 345 nm.
Regarding `CCOC(=O)CN1C(=O)C2=C(c3ccc(N4CCCCC4)cc3)N(CC(=O)OCC)C(=O)C2=C1c1ccc(C#N)cc1`, the absorption maximum (in CC#N) came out at 524 nm, the absorption maximum (in CS(C)=O) is 541 nm and the absorption maximum (in Cc1ccccc1) is given as 527 nm.
Where the note is “in CO”, `Cc1cc(C)c(B(c2cc(-c3ccc(N(C)C)cc3)sc2-c2sc(-c3ccc(N(C)C)cc3)cc2P(=O)(c2ccccc2)c2ccccc2)c2c(C)cc(C)cc2C)c(C)c1` had an absorption maximum of 435 nm.
In the case of `O=S(=O)(c1ccc(-c2ccc(-n3c4ccccc4c4ccccc43)cc2)cc1)c1ccc(-c2ccc(-n3c4ccccc4c4ccccc43)cc2)cc1`, for the setting “in Cc1ccccc1”, the absorption maximum is listed as 341 nm.
`F[B-]1(F)Oc2ccc(Br)cc2-c2c3c(c4c([n+]21)CCc1ccccc1-4)CCc1ccccc1-3` displayed an absorption maximum (in ClCCl) of 347 nm.
In the case of `CN1/C(=C\C=C\C2=C3C=CC(c4ccccc4)=[N+]3[B-](F)(F)n3c2ccc3-c2ccccc2)C(C)(C)c2ccccc21`, the absorption maximum (in CC#N) was 671 nm.
Under “in ClC(Cl)Cl”, `CC(C)(C)c1ccc2oc3nc4oc5ccc(N(c6ccccc6)c6ccccc6)cc5c4cc3c2c1` came in with an absorption maximum of 342 nm.
In the case of `Cc1nc2c(ccc3c2sc(/C=C/C=C/c2ccc(N(C)C)cc2)[n+]3C)s1`, the absorption maximum reads like this: (in CO) 574 nm; (in ClC(Cl)Cl) 617 nm.
As for `N#Cc1ccc(N)c(/C=C/C(F)(F)F)c1`, the absorption maximum (in C1CCOC1) stood at 348 nm.
